Columns and labels:
AhR = biological target: T1, AhR (Homo sapiens, UniProt P35869); assay: AhR antagonism in U937 cells (Promega P450-Glo assay); assay type: cell-based; settings: inhibition of 300 μM KYNA response, 24 hrs, CYP1A1 activity readout (Luciferin-CEE), arithmetic mean of pIC50
T1 construct: endogenous in cells; host or cells: U937 cells
T1 sequence (P35869 11-848): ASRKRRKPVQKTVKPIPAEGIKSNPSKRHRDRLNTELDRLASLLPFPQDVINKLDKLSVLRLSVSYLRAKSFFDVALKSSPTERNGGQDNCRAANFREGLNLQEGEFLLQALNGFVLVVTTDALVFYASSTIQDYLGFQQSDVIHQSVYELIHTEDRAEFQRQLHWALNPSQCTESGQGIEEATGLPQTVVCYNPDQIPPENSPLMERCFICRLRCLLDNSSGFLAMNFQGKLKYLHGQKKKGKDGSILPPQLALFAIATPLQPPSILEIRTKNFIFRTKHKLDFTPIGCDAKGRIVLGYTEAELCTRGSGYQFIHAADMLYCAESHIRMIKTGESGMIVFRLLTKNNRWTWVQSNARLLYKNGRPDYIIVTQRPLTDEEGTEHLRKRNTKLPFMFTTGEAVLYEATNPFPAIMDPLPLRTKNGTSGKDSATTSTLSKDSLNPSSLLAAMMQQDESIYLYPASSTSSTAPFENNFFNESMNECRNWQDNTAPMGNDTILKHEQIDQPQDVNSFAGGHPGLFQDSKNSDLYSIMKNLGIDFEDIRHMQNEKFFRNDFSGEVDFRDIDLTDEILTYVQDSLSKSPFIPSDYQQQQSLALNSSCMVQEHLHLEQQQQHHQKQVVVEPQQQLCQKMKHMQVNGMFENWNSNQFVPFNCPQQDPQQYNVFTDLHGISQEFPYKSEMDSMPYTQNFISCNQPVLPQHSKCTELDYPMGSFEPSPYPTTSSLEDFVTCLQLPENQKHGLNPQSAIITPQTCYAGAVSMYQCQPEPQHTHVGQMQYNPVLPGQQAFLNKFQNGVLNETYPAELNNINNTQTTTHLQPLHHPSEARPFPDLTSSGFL
Method: (§1) The compounds of the examples were tested in selected biological assays two or more times. Data are reported as the arithmetic mean of the pIC50 (−log10IC50) values, where IC50 is defined as the concentration of compound producing a 50% inhibition of the agonist (KYNA) response.
In Vitro Assay 1: AhR Antagonism in U937 Cells (Promega P450-Glo™ Assay)
AhR antagonism was assessed in U937 cells (myeloid lineage cell line derived from a human histiocytic lymphoma). Ligand binds the AhR in the cytoplasm, and the AhR-ligand complex translocates to the nucleus and forms a heterodimer with AhR nuclear translocator (Arnt). This complex binds the xenobiotic response element (XRE) in the 5′ upstream region of the CYP1A1 promoter, enhancing CYP1A1 expression. CYP1A1 activity is subsequently determined by assessing the conversion of Luciferin-CEE to luciferin, which in turn reacts with luciferase to produce light. The amount of light produced is directly proportional to cytochrome P450 activity. U937 cells in Ultraculture serum free media (Lonza) were plated at 100,000 cells per well in a round bottom 96 well tissue culture plate. Seven concentrations of test compound (final [DMSO]1%) were added and incubated for 10 minutes before the addition of 300 μM KYNA. The plates were then placed in an incubator at 37° C., >85% humidity, 5% CO2 for 24 hrs. After aspiration of the supernatant the CYP1A1 substrate Luciferin-CEE ([Final] 83 μM) was added and incubated for 3 hrs before the reaction was stopped by adding luciferin detection reagent and luminescence was read after 20 minutes.

CYP1A1 = biological target: T2, CYP1A1 (Homo sapiens, UniProt P04798); assay: CYP1A1 inhibition assay (Promega P450-Glo, Cypex CYP1A1 bactosomes); assay type: biochemical; settings: Luciferin-CEE 30 μM, 0.2 mM NADPH, 37° C. 10 minutes, arithmetic mean of pIC50
T2 construct: purchased Cypex
T2 sequence (P04798 1-512): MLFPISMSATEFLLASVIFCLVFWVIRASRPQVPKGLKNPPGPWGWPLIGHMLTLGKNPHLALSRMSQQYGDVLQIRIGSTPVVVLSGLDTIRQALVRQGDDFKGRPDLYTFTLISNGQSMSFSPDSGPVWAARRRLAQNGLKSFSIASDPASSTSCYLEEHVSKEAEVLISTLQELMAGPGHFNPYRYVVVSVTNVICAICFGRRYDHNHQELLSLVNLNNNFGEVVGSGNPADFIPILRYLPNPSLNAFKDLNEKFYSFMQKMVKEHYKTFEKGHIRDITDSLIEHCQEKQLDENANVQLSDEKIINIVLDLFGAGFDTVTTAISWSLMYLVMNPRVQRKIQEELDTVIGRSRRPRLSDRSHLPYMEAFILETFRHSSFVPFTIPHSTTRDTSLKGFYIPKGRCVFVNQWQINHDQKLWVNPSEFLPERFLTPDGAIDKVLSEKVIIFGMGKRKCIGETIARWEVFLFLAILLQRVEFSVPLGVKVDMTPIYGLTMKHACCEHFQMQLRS
Method: as §1
In vitro assay 2: CYP1A1 inhibition assay The direct CYP1A1 inhibitory activity of test compounds was also assessed using the Promega P450-Glo™ assay system. Seven concentrations of test compound were added to a ½ area white 96 well plate. Cypex CYP1A1 bactosomes ([final] 0.5 pmol) and CYP1A1 substrate Luciferin-CEE ([final] 30 μM) were prepared in 0.1M potassium phosphate buffer and incubated with test compounds at 37° C. for 5 minutes. 0.2 mM NADPH was then added to the plates and incubated at 37° C., for 10 minutes. The reaction was stopped by adding luciferin detection reagent and luminescence was read after 20 minutes.

| SMILES | IC50 (AhR) [nM] | IC50 (CYP1A1) [nM] |
| --- | --- | --- |
| CCn1c(-c2ccc(NC(=O)c3ccnn3C)cc2)nc2ccccc21 [Example 1, N-(4-(1-ethyl-1H-benzo[d]imidazol-2-yl)phenyl)-1-methyl-1H-pyrazole-5-carboxamide] | 63.1 | 251 |
| COCCn1nccc1C(=O)Nc1ccc(-c2nc3ccccc3o2)cc1 [Example 2, N-(4-(benzo[d]oxazol-2-yl)phenyl)-1-(2-methoxyethyl)-1H-pyrazole-5-carboxamide] | 100 | 794 |
| COC(=O)c1cccc2nc(-c3ccc(NC(=O)c4ccnn4C)cc3)oc12 [Example 3, methyl 2-(4-(1-methyl-1H-pyrazole-5-carboxamido)phenyl) benzo[d]oxazole-7-carboxylate] | – | 1260 |
| CNC(=O)c1cccc2nc(-c3ccc(NC(=O)c4ccnn4C)cc3)oc12 [Example 4, N-methyl-2-(4-(1-methyl-1H-pyrazole-5-carboxamido)phenyl) benzo[d]oxazole-7-carboxamide] | 79.4 | 1000 |
| Cc1nc(-c2ccc(NC(=O)c3ccnn3C)cc2)oc1C [Example 5, N-(4-(4,5-dimethyloxazol-2-yl)phenyl)-1-methyl-1H-pyrazole-5-carboxamide] | 15.8 | 1000 |
| Cc1cccc2nc(-c3ccc(NC(=O)c4ccnn4C)cc3)oc12 [Example 6, 1-methyl-N-(4-(7-methylbenzo[d]oxazol-2-yl)phenyl)-1H-pyrazole-5-carboxamide] | 39.8 | 631 |
| Cc1cc(NC(=O)c2ccon2)ccc1-c1nc2ccccc2o1 [Example 7, N-(4-(benzo[d]oxazol-2-yl)-3-methylphenyl)isoxazole-3-carboxamide] | 79.4 | 631 |
| Cc1cc(NC(=O)c2ccon2)ccc1-c1nc2cccc(C)c2o1 [Example 8, N-(3-methyl-4-(7-methylbenzo[d]oxazol-2-yl)phenyl) isoxazole-3-carboxamide] | 79.4 | 282 |
| Cc1cc(NC(=O)c2ccnn2C)ccc1-c1nc2cccc(C)c2o1 [Example 9, 1-methyl-N-(3-methyl-4-(7-methylbenzo[d]oxazol-2-yl)phenyl)-1H-pyrazole-5-carboxamide] | 7.94 | 158 |
| Cn1nccc1C(=O)Nc1ccc(-c2nc3ccccc3o2)cc1 [Example 10, N-(4-(benzo[d]oxazol-2-yl)phenyl)-1-methyl-1H-pyrazole-5-carboxamide] | 25.1 | 200 |
| Cn1nccc1C(=O)Nc1ccc(-c2nc3cccc(Cl)c3o2)cc1 [Example 11, N-(4-(7-chlorobenzo[d]oxazol-2-yl)phenyl)-1-methyl-1H-pyrazole-5-carboxamide] | 12.6 | 794 |
| Cn1nccc1C(=O)Nc1ccc(-c2nc3cccc(C(=O)NCCc4c[nH]c5ccccc45)c3o2)cc1 [Example 12, N-(2-(1H-indol-3-yl)ethyl)-2-(4-(1-methyl-1H-pyrazole-5-carboxamido)phenyl)benzo[d]oxazole-7-carboxamide] | 50.1 | 251 |
| Cn1nccc1C(=O)Nc1ccc(-c2nc3cccc(CO)c3o2)cc1 [Example 13, N-(4-(7-(hydroxymethyl)benzo[d]oxazol-2-yl)phenyl)-1-methyl-1H-pyrazole-5-carboxamide] | 100 | 794 |
| Cn1nccc1C(=O)Nc1ccc(-c2nc3cccc(C(N)=O)c3o2)cc1 [Example 14, 2-(4-(1-methyl-1H-pyrazole-5-carboxamido)phenyl) benzo [d]oxazole-7-carboxamide] | 200 | 2510 |
| CCNC(=O)c1cccc2nc(-c3ccc(NC(=O)c4ccnn4C)cc3)oc12 [Example 15, N-Ethyl-2-(4-(1-methyl-1H-pyrazole-5-carboxamido)phenyl) benzo[d]oxazole-7-carboxamide] | 398 | 1000 |
| Cn1nccc1C(=O)Nc1ccc(-c2nc3cccc(C#N)c3o2)cc1 [Example 16, N-(4-(7-Cyanobenzo[d]oxazol-2-yl)phenyl)-1-methyl-1H-pyrazole-5-carboxamide] | 15.8 | 2510 |
| Cc1cccc2oc(-c3ccc(NC(=O)c4ccnn4C)cc3)nc12 [Example 17, 1-methyl-N-(4-(4-methylbenzo[d]oxazol-2-yl)phenyl)-1H-pyrazole-5-carboxamide] | 31.6 | 1000 |
| Cn1nccc1C(=O)Nc1ccc(-c2nc3cccc(C(C)(C)O)c3o2)cc1 [Example 18, N-(4-(7-(2-hydroxypropan-2-yl)benzo[d]oxazol-2-yl)phenyl)-1-methyl-1H-pyrazole-5-carboxamide] | 363 | 251 |
| Cn1nccc1C(=O)Nc1ccc(-c2nc3cccc(Cl)c3[nH]2)cc1 [Example 19, N-(4-(7-chloro-1H-benzo[d]imidazol-2-yl)phenyl)-1-methyl-1H-pyrazole-5-carboxamide] | 145 | 316 |
| Cn1nccc1C(=O)Nc1ccc(-c2nc3ccccc3[nH]2)cc1 [Example 20, N-(4-(1H-benzo[d]imidazol-2-yl)phenyl)-1-methyl-1H-pyrazole-5-carboxamide] | 158 | 224 |
| Cn1nccc1C(=O)Nc1ccc(-c2nc3ccccc3s2)cc1 [Example 21, N-(4-(benzo[d]thiazol-2-yl)phenyl)-1-methyl-1H-pyrazole-5-carboxamide] | 50.1 | 316 |
| Cc1cc(NC(=O)c2ccnn2C)ccc1-c1nc2ccccc2o1 [Example 22, N-(4-(benzo[d]oxazol-2-yl)-3-methylphenyl)-1-methyl-1H-pyrazole-5-carboxamide] | 7.94 | 200 |
| Cc1cc(NC(=O)c2ccnn2C)ccc1-c1nc2c(C)cccc2o1 [Example 23, 1-methyl-N-(3-methyl-4-(4-methylbenzo[d]oxazol-2-yl)phenyl)-1H-pyrazole-5-carboxamide] | 17.4 | 1260 |
| COCCn1nccc1C(=O)Nc1ccc(-c2nc3cccc(C)c3o2)cc1 [Example 24, 1-(2-methoxyethyl)-N-(4-(7-methylbenzo[d]oxazol-2-yl)phenyl)-1H-pyrazole-5-carboxamide] | 63.1 | 631 |

Source: patent US20210395242A1, “HETEROCYCLIC COMPOUNDS AS AHR MODULATORS” (JAGUAHR THERAPEUTICS PTE LTD, priority 2018, published 2021)
